Patent publication US5384411A, “Immobilization of PH-sensitive dyes to solid supports” (Hewlett-Packard Company, priority 1991, dated 1995)

assay: pKa of carboxy-sulfonephthaleins bound to aminoethyl cellulose; assay type: physicochemical; conditions: dye bound to aminoethyl cellulose
Protocol: The carboxy-sulfonephthaleins of Examples 8A-8C were reacted with a solid support by the following general procedure:
Place 0.5 g aminoethyl cellulose (commercially available from Serva Biochemicals, Westbury, N.Y. 11590 as order no. 45015) in 30 ml of deionized water and set aside. Place 0.2 g of an appropriate dye in 25 ml of pyridine-HCl buffer (pH 5.8). Add the filtered cellulose to this reaction along with 83 mg of N-ethyl-N'-(3-dimethylaminopropyl)carbodimidehydrochloride (EDC). Place the reaction on a shaker overnight at room temperature. Collect the support and wash with large volumes of water, ethanol, acetone, DMF and pH buffers over the course of 2 days. Collect a final colored support. Also, this same procedure was run using aminopropyl silica beads (Serva #43660) in place of cellulose.
The pKa 's of the carboxy-sulfonephenolphthaleins bound to the solid support (aminoethyl cellulose) was determined and are set forth in Table 4 below: […]

Row | Compound | pKa
1 | Cc1cc(O)c(C(C)C)cc1C1(c2cc(C(C)C)c(O)cc2C)OS(=O)(=O)c2cc(C(=O)O)ccc21 [Example 8C] | 9.2
2 | O=C(O)c1ccc2c(c1)S(=O)(=O)OC2(c1ccc(O)c(Cl)c1)c1ccc(O)c(Cl)c1 [Example 8B] | 6.2
3 | O=C(O)c1ccc2c(c1)S(=O)(=O)OC2(c1ccc(O)cc1)c1ccc(O)cc1 [Example 8A] | 7.6

assay: pKa and color change with pH of carboxy-phenolphthaleins bound to Sepharose 4B; assay type: physicochemical; conditions: dye bound to Sepharose 4B
Protocol: Place 0.5 g of Sepharose 4B (commercially available from Pharmacia Inc., Piscataway, N.J. as order number 17-0470-01) in 0.5M NaCl for 1 hour and then collect and set aside. Place the appropriate carboxy-phenolphthalein (1.3 mmol) in about 1 ml dimethylformamide and cool to 0° C. in a ice-ethanol bath. […] Leave the reaction at this cold temperature for 15-20 minutes. Then add the Sepharose 4B gel to reaction along with a scoop of benzyltributyl ammonium bromide and 30 ml of borate buffer (pH 9). Place the reaction flask on a shaker overnight at room temperature. Collect the support on a frit and wash with volumes of water, ethanol, acetone and buffered water. Finally, dialyze the support against water for 1-2 days.

Row | Compound | pKa
4 | O=C(O)c1ccc2c(c1)C(=O)OC2(c1cc([N+](=O)[O-])c(O)cc1[N+](=O)[O-])c1cc([N+](=O)[O-])c(O)cc1[N+](=O)[O-] [Example 4G] | ~ 4
5 | O=C(O)c1ccc2c(c1)C(=O)OC2(c1cc(Cl)c(O)c([N+](=O)[O-])c1)c1cc(Cl)c(O)c([N+](=O)[O-])c1 [Example 4H] | ~ 5.5
6 | O=C(O)c1ccc2c(c1)C(=O)OC2(c1ccc(O)c(O)c1)c1ccc(O)c(O)c1 [Example 4I] | ~ 7
7 | O=C(O)c1ccc2c(c1)C(=O)OC2(c1cc(O)c(O)cc1[N+](=O)[O-])c1cc(O)c(O)cc1[N+](=O)[O-] [Example 4J] | ~ 6
8 | O=C(O)c1ccc2c(c1)C(=O)OC2(c1ccc(O)cc1)c1ccc(O)cc1 [Example 4A] | 10
9 | O=C(O)c1ccc2c(c1)C(=O)OC2(c1ccc(O)c2ccccc12)c1ccc(O)c2ccccc12 [Example 4E] | > 10

assay: pKa and pH dye properties of amino-phenolphthaleins bound to Sepharose 6B; assay type: physicochemical; conditions: dye bound to Sepharose 6B
Protocol: The amino-phenolphthaleins of Examples 2A-2E were reacted with a solid support by the following general procedure:
Place 0.5 g of Sepharose 6B (commercially available from Pharmacia Inc., Piscataway, N.J. as order number 17-0480-01) into deionized water for 30-45 min. to swell. Collect the white gel. In reaction beaker, place 0.3-0.5 g of an appropriate amino-phthalein into 3 ml dioxane and 20 ml of carbonate buffer (pH 10.5). Add the gel and let sit at 35° for 20 hrs. Collect the gel on a glass frit and wash with water, ethanol, acetone and high and low pH buffers. Dialyze the gel against deionized water for 2 days.

Row | Compound | retention of dye properties after coupling | pKa
10 | Nc1cccc2c1C(=O)OC2(c1ccc(O)c(Cl)c1)c1ccc(O)c(Cl)c1 [Example 2D] | no longer retained their dye properties | 
11 | Cc1cc(C2(c3cc(C)c(O)cc3C)OC(=O)c3c(N)cccc32)c(C)cc1O [Example 2B] |  | ~12
12 | Nc1cccc2c1C(=O)OC2(c1ccc(O)c(Br)c1)c1ccc(O)c(Br)c1 [Example 2C] | no longer retained their dye properties | 
13 | Nc1cccc2c1C(=O)OC2(c1ccc(O)cc1)c1ccc(O)cc1 [Example 2A] |  | approximately 10
